This is an account of results in US20090054493A1, “THIAZOLE DERIVATIVES AS PPAR DELTA LIGANDS AND THEIR MANUFACTURING PROCESS” (priority 2005, published 2009).

A value given as a limit tells only on which side of the number the result lay.

Assay type in all cases: cell-based
One data set concerns the target T1, PPARγ (Homo sapiens, UniProt P37231).
T1 construct: full-length PPARs plasmid DNA; expressed in transfected cells; host or cells: CV-1 cells
T1 sequence (P37231 1-505): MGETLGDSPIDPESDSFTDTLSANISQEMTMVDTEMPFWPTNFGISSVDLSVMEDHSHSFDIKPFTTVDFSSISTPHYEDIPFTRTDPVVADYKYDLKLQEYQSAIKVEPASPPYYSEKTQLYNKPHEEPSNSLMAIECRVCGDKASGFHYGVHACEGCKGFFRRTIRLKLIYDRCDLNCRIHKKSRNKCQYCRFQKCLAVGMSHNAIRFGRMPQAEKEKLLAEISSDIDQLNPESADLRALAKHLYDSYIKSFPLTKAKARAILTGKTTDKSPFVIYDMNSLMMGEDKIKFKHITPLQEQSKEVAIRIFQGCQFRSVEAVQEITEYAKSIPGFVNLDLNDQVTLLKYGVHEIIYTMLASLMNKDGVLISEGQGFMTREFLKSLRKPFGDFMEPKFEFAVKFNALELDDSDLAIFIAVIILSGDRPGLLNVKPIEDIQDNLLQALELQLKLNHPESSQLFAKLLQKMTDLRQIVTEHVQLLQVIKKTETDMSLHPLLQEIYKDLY
The data set is described as follows: Transfection assay (luciferase reporter) in CV-1 cells, PPARγ. The settings on record: full-length PPAR plasmid, luciferase normalized with β-galactosidase. The protocol:
(§1) The compounds prepared in Examples were tested for PPARδ activity by a transfection assay. In addition, the compounds were tested for selectivity for PPARα and PPARγ, the subtypes of PPARs, and also tested for toxicity by a MTT assay.
(§2) A transfection assay was performed using CV-1 cells. The culture of the cells was performed using a DMEM medium (10% FBS, DBS (delipidated) and 1% penicillin/streptomycin) on a 96-well plate in a 5% carbon dioxide-containing incubator at 37° C. […] Specifically, CV-1 cells were inoculated onto a 96-well plate at a concentration of 5,000 cells/well, and after 24 hours, the cells were transfected. In the cell transfection, full-length PPARs plasmid DNA, reporter DNA that has luciferase activity and thus allows the identification of PPARs, and β-galactosidase DNA that provides the information of transfection efficiency, were used as transfection reagents. Each of the compounds developed in the present invention was dissolved in dimethylsulfoxide (DMSO) and transfected into the cells at various concentrations using media. The cells were cultured in an incubator for 24 and then lysed with lysis buffer. The lysed cells were measured for luciferase and β-galactosidase activities using a luminometer and a microplate reader. The measured luciferase values were normalized with the β-galactosidase values and graphed. From the graph, EC50 values were determined.
For orientation: Reporter assays use an easily measured gene product as a stand-in for the process of interest.

The next data set deals with T2, PPARδ (Homo sapiens, UniProt Q03181).
T2 sequence (Q03181 1-441): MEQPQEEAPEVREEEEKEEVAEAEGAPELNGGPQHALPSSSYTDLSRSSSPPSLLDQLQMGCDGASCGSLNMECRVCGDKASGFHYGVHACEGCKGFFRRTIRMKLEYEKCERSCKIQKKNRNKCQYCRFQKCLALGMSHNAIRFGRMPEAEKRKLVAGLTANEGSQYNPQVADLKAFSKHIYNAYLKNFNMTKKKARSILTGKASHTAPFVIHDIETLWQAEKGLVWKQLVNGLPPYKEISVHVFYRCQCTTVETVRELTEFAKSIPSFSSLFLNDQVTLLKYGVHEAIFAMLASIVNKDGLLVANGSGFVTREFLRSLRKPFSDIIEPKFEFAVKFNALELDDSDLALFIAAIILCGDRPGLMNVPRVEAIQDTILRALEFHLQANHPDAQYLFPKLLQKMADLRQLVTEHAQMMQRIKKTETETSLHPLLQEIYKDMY
The data set is described as follows: Transfection assay (luciferase reporter) in CV-1 cells, PPARδ. Also on record: full-length PPARs plasmid DNA; expressed in transfected cells; host or cells: CV-1 cells. The settings on record: full-length PPAR plasmid, luciferase normalized with β-galactosidase. The protocol:
as §1, §2

A further data set can be described thus: MTT assay, cytotoxicity. The settings on record: African green monkey, CV-1 cells, read-out: LC50 Cytotoxicity. The protocol:
The compounds of Examples 47-97 according to the present invention were tested for cytotoxicity using a MTT assay. MTT is a water-soluble yellow substance, but if it is introduced into living cells, it will be degenerated into a water-insoluble purple crystal due to dehydrogenase contained in mitochondria. If this substance is dissolved in dimethylsulfoxide and then measured for absorbance at 550 nm, cytotoxicity can be assayed. The test method is as follows.
CV-1 cells were first inoculated onto a 96-well plate at a concentration of 5,000 cells/well. The inoculated cells were cultured in a 5% carbon dioxide-containing humidified incubator at 37° C. for 24 hours, and then treated with the inventive compounds at various concentrations. After 24 hours of culture, a MTT reagent was added to the cultured cells. After 15 minutes of culture, the resulting purple crystal was dissolved in dimethylsulfoxide and then measured for absorbance using a microplate reader. From the measured absorbance, cytotoxicity was assayed.
(Tetrazolium assays rely on reduction of a dye to a coloured formazan, in cell work by metabolically active cells.)

A further data set has as its target T3, PPARα (Homo sapiens, UniProt Q07869).
T3 construct: full-length PPARs plasmid DNA; expressed in transfected cells; host or cells: CV-1 cells
T3 sequence (Q07869 1-468): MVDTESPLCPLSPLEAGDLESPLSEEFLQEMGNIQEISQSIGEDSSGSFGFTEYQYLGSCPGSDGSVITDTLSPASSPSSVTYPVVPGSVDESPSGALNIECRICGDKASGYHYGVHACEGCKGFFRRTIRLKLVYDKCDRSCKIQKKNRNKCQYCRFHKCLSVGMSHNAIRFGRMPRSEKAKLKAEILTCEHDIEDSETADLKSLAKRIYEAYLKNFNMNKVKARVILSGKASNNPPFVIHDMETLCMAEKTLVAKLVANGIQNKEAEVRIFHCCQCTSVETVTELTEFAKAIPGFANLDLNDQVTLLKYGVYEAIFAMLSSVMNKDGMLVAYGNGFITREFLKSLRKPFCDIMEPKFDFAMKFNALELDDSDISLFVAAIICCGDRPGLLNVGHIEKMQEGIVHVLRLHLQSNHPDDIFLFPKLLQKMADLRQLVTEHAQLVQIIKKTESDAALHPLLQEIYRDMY
In words: Transfection assay (luciferase reporter) in CV-1 cells, PPARα. The settings on record: full-length PPAR plasmid, luciferase normalized with β-galactosidase. The protocol: as §1
A transfection assay was performed using CV-1 cells. The culture of the cells was performed using a DMEM medium (10% FBS, DBS (delipidated) and 1% penicillin/streptomycin) on a 96-well plate in a 5% carbon dioxide-containing incubator at 37° C. The test was performed in four steps consisting of cell inoculation, transfection, treatment of the compounds, and analysis of results. Specifically, CV-1 cells were inoculated onto a 96-well plate at a concentration of 5,000 cells/well, and after 24 hours, the cells were transfected. In the cell transfection, full-length PPARs plasmid DNA, reporter DNA that has luciferase activity and thus allows the identification of PPARs, and β-galactosidase DNA that provides the information of transfection efficiency, were used as transfection reagents. Each of the compounds developed in the present invention was dissolved in dimethylsulfoxide (DMSO) and transfected into the cells at various concentrations using media. The cells were cultured in an incubator for 24 and then lysed with lysis buffer. The lysed cells were measured for luciferase and β-galactosidase activities using a luminometer and a microplate reader. The measured luciferase values were normalized with the β-galactosidase values and graphed. From the graph, EC50 values were determined.

Usually EC50 stands for the midpoint of the concentration-response curve. A high value points to lower potency in that assay. Consider `CCOC(=O)COc1ccc(SC(Cc2c(F)cccc2Cl)c2sc(-c3ccc(C(F)(F)F)cc3)nc2C)cc1C` (stereo not drawn) [Example 47], for which, at PPARγ, the “EC50 PPARγ” value is on record as “ia”. Moreover, the EC50 at PPARδ is 6.5 nM. The CC50 at 24 h in “MTT assay, cytotoxicity” is > 100000 nM. Further, the “EC50 PPARα” value on PPARα is recorded as “ia”.

Turning to `Cc1cc(SC(CCc2ccccc2)c2sc(-c3ccc(C(F)(F)F)cc3)nc2C)ccc1OCC(=O)O` (stereo not drawn) [Example 68, 2-[4-[1-[2-[4-(trifluoromethyl)phenyl]-4-methylthiazol-5-yl]-3-phenylpropylthio]-2-methylphenoxy]acetic acid], the “EC50 PPARγ” value at PPARγ is on record as “ia”. In addition, on PPARδ, the EC50 was 2.7 nM. For the same molecule, the CC50 at 24 h in the data set “MTT assay, cytotoxicity” is > 100000 nM. Also, the “EC50 PPARα” value on PPARα was “ia”.

As for `Cc1cc(SC(CCCc2ccccc2)c2sc(-c3ccc(C(F)(F)F)cc3)nc2C)ccc1OCC(=O)O` (stereo not drawn) [Example 70, 2-[4-[1-[2-[4-(trifluoromethyl)phenyl]-4-methylthiazol-5-yl]-4-phenylbutylthio]-2-methylphenoxy]acetic acid], the “EC50 PPARγ” value on PPARγ is “ia”. The EC50 at PPARδ stood at 6.1 nM. Besides, the CC50 at 24 h in the data set “MTT assay, cytotoxicity” stood at 91000 nM. Further, on PPARα, the “EC50 PPARα” value is listed as “ia”.

Regarding `Cc1cc(SC(CCCCc2ccccc2)c2sc(-c3ccc(C(F)(F)F)cc3)nc2C)ccc1OCC(=O)O` (stereo not drawn) [Example 71, 2-[4-[1-[2-[4-(trifluoromethyl)phenyl]-4-methylthiazol-5-yl]-5-phenylpentylthio]-2-methylphenoxy]acetic acid], the “EC50 PPARγ” value on PPARγ is recorded as “ia”. This molecule showed a concentration giving a half-maximal response (EC50) at PPARδ of 38.8 nM. For the same molecule, the CC50 at 24 h in “MTT assay, cytotoxicity” came out at 93000 nM. On PPARα, the “EC50 PPARα” value was “ia”.

Regarding `Cc1cc(SC(CCCCCc2ccccc2)c2sc(-c3ccc(C(F)(F)F)cc3)nc2C)ccc1OCC(=O)O` (stereo not drawn) [Example 72, 2-[4-[1-[2-[4-(trifluoromethyl)phenyl]-4-methylthiazol-5-yl]-6-phenylhexylthio]-2-methylphenoxy]acetic acid], on PPARγ, the “EC50 PPARγ” value is reported as “ia”. The molecule further displayed an EC50 at PPARδ of 11.5 nM. Moreover, the CC50 at 24 h in the data set “MTT assay, cytotoxicity” was 92000 nM. Besides, on PPARα, the “EC50 PPARα” value is recorded as “ia”.

In the case of `Cc1cc(SC(CCCCCCCc2ccccc2)c2sc(-c3ccc(C(F)(F)F)cc3)nc2C)ccc1OCC(=O)O` (stereo not drawn) [Example 73, 2-[4-[1-[2-[4-(trifluoromethyl)phenyl]-4-methylthiazol-5-yl]-8-phenyloctylthio]-2-methylphenoxy]acetic acid], on PPARγ, the “EC50 PPARγ” value is “ia”. The EC50 on PPARδ amounted to 57.2 nM. For the same molecule, the CC50 at 24 h in the data set “MTT assay, cytotoxicity” came out at 94000 nM. Further, the “EC50 PPARα” value on PPARα was “ia”.

Take `Cc1cc(SC(CCCCCCCCCCc2ccccc2)c2sc(-c3ccc(C(F)(F)F)cc3)nc2C)ccc1OCC(=O)O` (stereo not drawn) [Example 74, 2-[4-[1-[2-[4-(trifluoromethyl)phenyl]-4-methylthiazol-5-yl]-11-phenylundecylthio]-2-methylphenoxy]acetic acid]: the “EC50 PPARγ” value on PPARγ is listed as “ia”. The molecule further gave an EC50 at PPARδ of 132 nM. Further, the CC50 at 24 h in “MTT assay, cytotoxicity” was > 100000 nM. In addition, the “EC50 PPARα” value on PPARα is recorded as “ia”.

Take `Cc1cc(SC(Cc2c(F)cccc2Cl)c2sc(-c3ccc(C(F)(F)F)cc3)nc2C)ccc1OCC(=O)O` (stereo not drawn) [Example 75, 2-[4-[2-(2-chloro-6-fluorophenyl)-1-[2-[4-(trifluoromethyl)phenyl]-4-methylthiazol-5-yl]ethylthio]-2-methylphenoxy]acetic acid]: the “EC50 PPARγ” value on PPARγ is “ia”. The molecule further displayed an EC50 on PPARδ of 2.1 nM. The CC50 at 24 h in the data set “MTT assay, cytotoxicity” is > 100000 nM. Moreover, on PPARα, the “EC50 PPARα” value is “ia”.

Consider `Cc1cc(SC(Cc2ccc(C#N)cc2)c2sc(-c3ccc(C(F)(F)F)cc3)nc2C)ccc1OCC(=O)O` (stereo not drawn) [Example 76, 2-[4-[2-(4-cyanophenyl)-1-[2-[4-(trifluoromethyl)phenyl]-4-methylthiazol-5-yl]ethylthio]-2-methylphenoxy]acetic acid], for which, at PPARγ, the “EC50 PPARγ” value was “ia”. Further, the concentration giving a half-maximal response (EC50) on PPARδ is 22.1 nM. The CC50 at 24 h in “MTT assay, cytotoxicity” is > 100000 nM. Besides, the “EC50 PPARα” value on PPARα is recorded as “ia”.

`Cc1cc(SC(Cc2c(F)c(F)c(F)c(F)c2F)c2sc(-c3ccc(C(F)(F)F)cc3)nc2C)ccc1OCC(=O)O` (stereo not drawn) [Example 80, 2-[4-[1-[2-[4-(trifluoromethyl)phenyl]-4-methylthiazol-5-yl]-2-(perfluorophenyl)ethylthio]-2-methylphenoxy]acetic acid] returned an EC50 on PPARδ of 46.4 nM. In the data set “MTT assay, cytotoxicity”, the CC50 at 24 h was > 100000 nM. In addition, the “EC50 PPARα” value on PPARα is recorded as “ia”.

With `Cc1cc(SC(Cc2ccc(Br)cc2)c2sc(-c3ccc(C(F)(F)F)cc3)nc2C)ccc1OCC(=O)O` (stereo not drawn) [Example 81, 2-[4-[2-(4-bromophenyl)-1-[2-[4-(trifluoromethyl)phenyl]-4-methylthiazol-5-yl]ethylthio]-2-methylphenoxy]acetic acid], the “EC50 PPARγ” value on PPARγ was “ia”. Besides, the response on PPARδ was half-maximal at 11.5 nM (EC50). Also, in the data set “MTT assay, cytotoxicity”, the CC50 at 24 h is 92000 nM.

On to `Cc1cc(SC(Cc2c(F)cccc2C(F)(F)F)c2sc(-c3ccc(C(F)(F)F)cc3)nc2C)ccc1OCC(=O)O` (stereo not drawn) [Example 82, 2-[4-[2-[2-fluoro-6-(trifluoromethyl)phenyl]-1-[2-[4-(trifluoromethyl)phenyl]-4-methylthiazol-5-yl]ethylthio]-2-methylphenoxy]acetic acid], for which the EC50 at PPARδ was 2.6 nM. For the same molecule, in “MTT assay, cytotoxicity”, the CC50 at 24 h is > 100000 nM. Further, at PPARα, the “EC50 PPARα” value is reported as “ia”.
